Measurements reported in ChEMBL document CHEMBL4118097, “Selective Inhibitors of Dual Leucine Zipper Kinase (DLK, MAP3K12) with Activity in a Model of Alzheimer's Disease” (J Med Chem, 2017).

Experiments:
[1] = biological target: T1, Mitogen-activated protein kinase kinase kinase 12 (Homo sapiens, UniProt Q12852); assay: Inhibition of doxycycline inducible human DLK transfected in HEK293 cells assessed as JNK phosphorylation after […] by Hoechst-33342 staining-based assay; type: cell-based
T1 sequence (Q12852 whole entry): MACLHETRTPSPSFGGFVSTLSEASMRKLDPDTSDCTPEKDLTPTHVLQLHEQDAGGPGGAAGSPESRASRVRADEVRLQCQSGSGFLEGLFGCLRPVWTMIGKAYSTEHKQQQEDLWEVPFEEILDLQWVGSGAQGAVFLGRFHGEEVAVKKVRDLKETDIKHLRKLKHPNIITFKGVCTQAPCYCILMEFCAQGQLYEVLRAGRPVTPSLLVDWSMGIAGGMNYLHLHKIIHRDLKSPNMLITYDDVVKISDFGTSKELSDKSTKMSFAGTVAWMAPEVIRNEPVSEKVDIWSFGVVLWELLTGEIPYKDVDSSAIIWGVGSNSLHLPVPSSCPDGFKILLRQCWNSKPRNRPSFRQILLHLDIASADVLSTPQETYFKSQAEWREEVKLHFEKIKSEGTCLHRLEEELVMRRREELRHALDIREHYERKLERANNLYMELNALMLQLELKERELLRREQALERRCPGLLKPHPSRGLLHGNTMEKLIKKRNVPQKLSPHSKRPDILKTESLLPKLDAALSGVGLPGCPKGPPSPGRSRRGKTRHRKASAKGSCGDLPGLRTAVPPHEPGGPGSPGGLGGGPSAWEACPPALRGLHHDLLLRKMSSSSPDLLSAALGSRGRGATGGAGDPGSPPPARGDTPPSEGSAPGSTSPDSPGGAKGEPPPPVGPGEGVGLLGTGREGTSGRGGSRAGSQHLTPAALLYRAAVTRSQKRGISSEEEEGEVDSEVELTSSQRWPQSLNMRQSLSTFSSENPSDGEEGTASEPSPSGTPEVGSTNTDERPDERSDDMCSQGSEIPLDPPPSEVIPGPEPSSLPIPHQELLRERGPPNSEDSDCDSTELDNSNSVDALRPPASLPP

[2] = biological target: T1, Mitogen-activated protein kinase kinase kinase 12; assay: Binding affinity to N-terminally GST-tagged wild type human DLK (1 to 520 residues) expressed in sf21 insect cells using N-terminally His-tagged MKK4 K131M as substrate after 60 mins in presence of ATP by TR-FRET assay
MDR1 (P-gp), human [3] = assay: Efflux ratio of permeability from basolateral to apical side over apical to basolateral side in MDCK cells harboring human MDR1; type: ADME, cell-based, Canis lupus familiaris; conditions: dog
MDR1 (P-gp), human [4] = assay: Permeability from apical side to basolateral side in MDCK1 cells harboring human MDR1; type: ADME, cell-based, Canis lupus familiaris; conditions: dog, MDCK-MDR1; read-out: permeability

SMILES	IC50 [1]	Ki [2]	efflux ratio (MDR1 (P-gp), human [3])	Papp A→B (MDR1 (P-gp), human [4])
CC(C)(O)Cn1nc(-c2cnc(N)c(C(F)(F)F)c2)cc1[C@H]1[C@@H]2CN(C3COC3)C[C@@H]21	829 nM	23 nM		
Nc1ncc(-c2cc([C@H]3[C@@H]4CN(C5COC5)C[C@@H]43)n(CC3CC3)n2)cc1OC(F)(F)F	304 nM	3 nM		
CC(C)n1nc(-c2cnc(N)c(C(F)(F)F)c2)cc1[C@H]1[C@@H]2CN(CC(F)F)C[C@@H]21	611 nM		0.3	7.9 ×10⁻⁶ cm/s
Cc1cc(-c2cc(C3CCN(C4COC4)CC3)n(C(C)C)n2)cnc1N		> 1600 nM		
CC(C)n1nc(-c2cnc3[nH]cc(F)c3c2)cc1C1CCN(C2COC2)CC1	2800 nM			
COc1cc(-c2cc([C@H]3[C@@H]4CN(C5COC5)C[C@@H]43)n(C(C)C)n2)cnc1N	873 nM	7 nM		
CC(C)n1nc(-c2cnc(N)c(C(F)(F)F)c2)cc1[C@H]1[C@@H]2CN(CC3COC3)C[C@@H]21	274 nM	5 nM		
CC(C)n1nc(-c2cnc(N)c(Cl)c2)cc1C1CCN(C2COC2)CC1	1700 nM			
CC(C)n1nc(-c2cnc(N)c(C(F)(F)F)c2)cc1C1CCN(C2COC2)CC1	1900 nM			
Cn1nc(-c2cnc(N)c(C(F)(F)F)c2)cc1[C@H]1[C@@H]2CN(C3COC3)C[C@@H]21	1800 nM	82 nM		
Nc1ncc(-c2cc([C@H]3[C@@H]4CN(C5COC5)C[C@@H]43)n(CC3CCCC3)n2)cc1C(F)(F)F	202 nM	9 nM		
CC(C)n1nc(-c2cnc3[nH]cc(C(F)(F)F)c3c2)cc1C1CCN(C2COC2)CC1	485 nM			
CC(C)Cn1nc(-c2cnc(N)c(C(F)(F)F)c2)cc1[C@H]1[C@@H]2CN(C3COC3)C[C@@H]21	99 nM	3 nM		
Nc1ncc(-c2cc([C@H]3[C@@H]4CN(C5COC5)C[C@@H]43)n(CC(F)(F)F)n2)cc1C(F)(F)F	180 nM	16 nM		
CCn1nc(-c2cnc(N)c(C(F)(F)F)c2)cc1[C@H]1[C@@H]2CN(C3COC3)C[C@@H]21	406 nM	3 nM		
CC(C)n1nc(-c2cnc3[nH]cc(Cl)c3c2)cc1C1CCN(C2COC2)CC1	574 nM			
COCCN1C[C@@H]2[C@H](C1)[C@H]2c1cc(-c2cnc(N)c(C(F)(F)F)c2)nn1C(C)C	265 nM	9 nM		
CC(C)n1nc(-c2cnc(N)c(C(F)F)c2)cc1[C@H]1[C@@H]2CN(C3COC3)C[C@@H]21	1200 nM			
CC(C)n1nc(-c2cnc(N)c(OC(F)F)c2)cc1[C@H]1[C@@H]2CN(C3COC3)C[C@@H]21	328 nM			
Cc1c[nH]c2ncc(-c3cc(C4CCN(C5COC5)CC4)n(C(C)C)n3)cc12	303 nM	4 nM		
Cn1nc(-c2cnc(N)c(OC(F)(F)F)c2)cc1[C@H]1[C@@H]2CN(C3COC3)C[C@@H]21	1300 nM	67 nM		
CC(=O)N1C[C@@H]2[C@H](C1)[C@H]2c1cc(-c2cnc(N)c(C(F)(F)F)c2)nn1C(C)C	302 nM	6 nM		
CC(O)CN1C[C@@H]2[C@H](C1)[C@H]2c1cc(-c2cnc(N)c(C(F)(F)F)c2)nn1C(C)C (some centres undefined)	208 nM	4 nM		
